Experimental data taken from patent US20200378993A1, “MEDICAL USES OF APOLIPOPROTEIN A AND ACTIVATORS THEREOF” (FUNDACIÓN IMDEA ALIMENTACIÓN, priority 2017, published 2020).

Key:
Type in all cases: cell-based, human
DLD1 cells [1] = assay: Cell viability and proliferation assay (XCELLigence); conditions: ApoA1 40 μg/ml first dose of 72 hours, 20 μg/ml during result acquisition; DLD1 cells
Procedure: (§1) Cell viability and proliferation assays were carried out by means of XCELLigence technology (ACEA Biosciences, Inc.) following the manufacturer's indications. Migration and invasion assays were carried out in Corning® BioCoat™ Control plates (#354578) and Corning® BioCoat™ Matrigel plates (#354480), respectively, following the manufacturer's indications. For the rescue assays, the cells were treated for 72 hours with 30 μM apabetalone (RVX-208; Biovision). Antibodies: ABCA1 (Ab18180, Abcam. 1:500); caveolin-1 (Ab2910, Abcam. 1:1000); α-tubulin (T9026, Sigma 1:1000). The DLD1 cells correspond to a human colorectal cancer-derived adherent epithelial cell line (ATCC® CCL-221™). The stable cell lines capable of overexpressing ABCA1 were obtained by means of transduction with genetically modified lentivirus.
(§2) Following the same treatment regimen, the inventors carried out migration and invasion assays.
(§3) The same assays were repeated by replacing ApoA1 with a treatment with RVX-208. In this case, DLD1 cells were pre-treated for 72 hours before the start of the experiment with RVX-208 at a concentration of 30 μm and were subjected to a treatment with 15 μM of RVX-208 during the development of the experiments.
(§4) For the purpose of confirming that the effects of RVX-208 in cell phenotype recovery were due to the increase in ApoA-1 expression, the inventors inhibited the expression of said protein by means of transfection of a complementary small RNA, ShApoA1 (FIG. 9). Twenty-four hours after transfection with ShApoA1 expression vector, the inventors started treatment with 30 μM of RVX-208. Cell viability and proliferation in DLD1 cells (D_NoORF) and D1D1 cell lines expressing increased ApoA1 levels (D_ApoA1 ) were analyzed with the xCELLigence system.

DLD1 cells [2] = assay: Migration assay (Corning BioCoat Control plates); conditions: ApoA1 40 μg/ml 72 hours before, 20 μg/ml during assay
Procedure: as §1, §2, §3

DLD1 cells [3] = assay: Invasion assay (Corning BioCoat Matrigel plates); conditions: ApoA1 40 μg/ml 72 hours before, 20 μg/ml during assay; DLD1 cells
Procedure: as §1, §2, §3, §4

DLD1_ABCA1 cells = assay: Cell viability and proliferation assay (XCELLigence); conditions: 40 μg/ml apolipoprotein A1 (72 hours before, 20 μg/ml during acquisition); DLD1_ABCA1 cells
Procedure: (§5) FIG. 6. A) Proliferation curve in a viability assay carried out by means of XCELLigence technology. The results for the stable cell line overexpressing ABCA1 in the absence and presence of ApoA1 are shown. The cells were treated for 72 hours before the experiment with 40 μg/ml of ApoA1 and with a concentration of 20 μg/ml during acquisition. B) Migration and invasion assays. The method followed was the same as the one described in FIG. 1. (**p-value=0.003; ****p-value<0.0001). C) ABCA1 messenger RNA level (left panel) and ABCA1 protein level (right panel) in the presence and absence of treatment with ApoA1. Results are shown both for the control cells and for those cells overexpressing the transporter.
Cell viability and proliferation assays were carried out by means of XCELLigence technology (ACEA Biosciences, Inc.) following the manufacturer's indications. Migration and invasion assays were carried out in Corning® BioCoat™ Control plates (#354578) and Corning® BioCoat™ Matrigel plates (#354480), respectively, following the manufacturer's indications. […]
(§6) The inventors were able to confirm said results based on the treatment of DLD1 cells expressing ABCA1 with RVX-208 under the conditions already described in detail in Example 3. […] The levels of caveolin-1, a protein whose increased levels have been associated with increases in cell migration and invasion, were also analyzed in this experiment.

[4] = tested on: ABCA1 cholesterol transporter; assay: ABCA1 messenger RNA and protein level after treatment
Procedure: as §5
FIG. 7. A) Proliferation curve in a viability assay carried out by means of XCELLigence technology. Growth of DLD1 cells treated with DMSO as the drug carrier and with Rvx-208 (30 μM). The significant differences existing in the slope of the graph, and therefore in the growth dynamics of the treated cells are shown in the right panel (****p-value<0.0001). B) Migration and invasion assays. The method followed was the same as the one described in FIG. 2 (*p-value=0.0407; ****p-value<0.0001). C) Expression levels of proteins E-cadherin and Vimentin in the presence and absence of Rvx-208. Analysis performed by means of quantitative PCR. The relative expression levels normalized with respect to the untreated control are shown. D) ABCA1, ApoA1, caveolin-1, and α-tubulin immunodetection by means of Western blot. α-tubulin acts as load control. The results of the cells treated with Rvx-208 (30 μM) or with the DMSO carrier are shown. E) Cholesterol flux in cells treated with Rvx-208.
as §1, with “The stable cell lines capable of overexpressing ABCA1 were obtained by means of transduction with genetically modified lentivirus.” left out
as §6

[5] = treatment with ApoA1, control cells and cells overexpressing ABCA1

ApoA1: apolipoprotein A1 protein administered to the cells
cell proliferation (DLD1 cells [1]): significant decrease in cell proliferation | capacity to migrate to the serum-rich region (DLD1 cells [2]): reduced capacities to migrate to the serum-rich region | capacity to invade the extracellular matrix (DLD1 cells [3]): reduced capacities | proliferative capacity (DLD1_ABCA1 cells): dropped to levels that are comparable to the control situation | ABCA1 levels ([4]; direct treatment with ApoA1, as restated in Example 5 (FIG. 6C)): induces an increase in ABCA1 levels | ABCA1 expression level, messenger RNA level [4, 5]: significantly decreases the expression levels | ABCA1 expression level, protein level [4, 5]: significantly decreases the expression levels
